In US20140107316A1, “DRUG DELIVERY CONJUGATES CONTAINING UNNATURAL AMINO ACIDS AND METHODS FOR USING” (priority 2012, published 2014):
“Also recorded” adds a separate entry of the source. Like-named read-outs stand apart in the source and are kept apart here.

Legend:
A549 = experiment: In vitro test against cancer cell lines, A549; type: cell-based, Human; conditions: A549, FR status −; evaluated from 0.1-100 nM
Protocol: (§1) In vitro test against the various cancer cell lines. Cells are heavily seeded in 24-well Falcon plates and allowed to form nearly confluent monolayers overnight. Thirty minutes prior to the addition of the test compound, spent medium is aspirated from all wells and replaced with fresh folate-deficient RPMI medium (FFRPMI). A subset of wells are designated to receive media containing 100 μM folic acid. The cells in the designated wells are used to determine the targeting specificity. […] Following one rinse with 1 mL of fresh FFRPMI containing 10% heat-inactivated fetal calf serum, each well receives 1 mL of medium containing increasing concentrations of test compound (4 wells per sample) in the presence or absence of 100 μM free folic acid as indicated. Treated cells are pulsed for 2 h at 37° C., rinsed 4 times with 0.5 mL of media, and then chased in 1 mL of fresh medium up to 70 h. Spent medium is aspirated from all wells and replaced with fresh medium containing 5 μCi/mL ^3H-thymidine. […] A 450 μL aliquot of each solubilized sample is transferred to a scintillation vial containing 3 mL of Ecolume scintillation cocktail and then counted in a liquid scintillation counter. Final tabulated results are expressed as the percentage of ^3H-thymidine incorporation relative to untreated controls.
(§2) Folate receptor expressing cells. […] EC1456 was evaluated from 0.1-100 nM.

[1] = test system: folate receptor-positive KB cells
Protocol: Inhibition of Cellular DNA Synthesis. The compounds described herein were evaluated using an in vitro cytotoxicity assay that predicts the ability of the drug to inhibit the growth of folate receptor-positive KB cells. The compounds were comprised of folate linked to a respective chemotherapeutic drug, as prepared according to the protocols described herein. The KB cells were exposed for up to 7 h at 37° C. to the indicated concentrations of folate-drug conjugate in the absence or presence of at least a 100-fold excess of folic acid. The cells were then rinsed once with fresh culture medium and incubated in fresh culture medium for 72 hours at 37° C. Cell viability was assessed using a ^3H-thymidine incorporation assay.
In vitro test against the various cancer cell lines. Cells are heavily seeded in 24-well Falcon plates and allowed to form nearly confluent monolayers overnight. Thirty minutes prior to the addition of the test compound, spent medium is aspirated from all wells and replaced with fresh folate-deficient RPMI medium (FFRPMI). A subset of wells are designated to receive media containing 100 μM folic acid. The cells in the designated wells are used to determine the targeting specificity. […] Following one rinse with 1 mL of fresh FFRPMI containing 10% heat-inactivated fetal calf serum, each well receives 1 mL of medium containing increasing concentrations of test compound (4 wells per sample) in the presence or absence of 100 μM free folic acid as indicated. Treated cells are pulsed for 2 h at 37° C., rinsed 4 times with 0.5 mL of media, and then chased in 1 mL of fresh medium up to 70 h. Spent medium is aspirated from all wells and replaced with fresh medium containing 5 μCi/mL ^3H-thymidine. Following a further 2 h 37° C. incubation, cells are washed 3 times with 0.5 mL of PBS and then treated with 0.5 mL of ice-cold 5% trichloroacetic acid per well. After 15 min, the trichloroacetic acid is aspirated and the cell material solubilized by the addition of 0.5 mL of 0.25 N sodium hydroxide for 15 min. A 450 μL aliquot of each solubilized sample is transferred to a scintillation vial containing 3 mL of Ecolume scintillation cocktail and then counted in a liquid scintillation counter. Final tabulated results are expressed as the percentage of ^3H-thymidine incorporation relative to untreated controls.
as §2

NCI/ADR-RES-Cl2 = experiment: In vitro test against cancer cell lines, NCI/ADR-RES-Cl2; type: cell-based, Human
Protocol: as §1, §2

KB-CR tumors = experiment: Cisplatin-resistant KB-CR tumor model; type: in vivo; conditions: 2 μmol/kg i.v., three times per week (M/W/F), 2 weeks
Protocol: Toxicity as Measured by Weight Loss. The percentage weight change of the mice was determined in mice (5 mice/group) on selected days post-tumor inoculation (PTI), and graphed.

[2] = Maximum tolerated dose (MTD); type: in vivo, female Sprague-Dawley rats
From the text: Maximum tolerated dose (MTD). […] For Example, EC1456 has a MTD of at least 0.51 μmol/kg and EC0531 has a MTD of 0.33 μmol/kg, […] when administered by i.v., BIW, 2 wks in female Sprague-Dawley rats. Histopathologic changes were not observed with doses of EC1456 at or below the MTD.

H23 = experiment: In vitro test against cancer cell lines, H23; type: cell-based, Human; conditions: H23, FR status −; evaluated from 0.1-100 nM
Protocol: as §1, §2

IGROV1 = experiment: In vitro test against cancer cell lines, IGROV1; type: cell-based, Human
Protocol: as §1, §2

LNCaP = experiment: In vitro test against cancer cell lines, LNCaP; type: cell-based, Human; conditions: FR status −, evaluated from 0.1-100 nM, read-out: EC1456 Activity (IC50)
Protocol: as §1, §2

AN3CA = experiment: In vitro test against cancer cell lines, AN3CA; type: cell-based, Human; conditions: FR status −, evaluated from 0.1-100 nM
Protocol: as §1, §2

MDA-MB-231 tumors = experiment: Established subcutaneous MDA-MB-231 breast cancer xenograft; type: in vivo, mice; conditions: three times per week
From the text: Inhibition of Tumor Growth in Mice.
Toxicity as Measured by Weight Loss.
Triple negative breast cancer (TNBC) is a subtype characterized by lack of gene expression for estrogen, progesterone and Her2/neu. TNBC is difficult to treat, and its death rate is disproportionately higher than for any other subtype of breast cancer.

HepG2 = experiment: In vitro test against cancer cell lines, HepG2; type: cell-based, Human; conditions: HepG2, FR status −; evaluated from 0.1-100 nM
Protocol: as §1, §2

folate receptors (FRs) = molecular target: T1, folate receptors (FRs) (Homo sapiens, UniProt P15328); experiment: Relative affinity assay (3H-folic acid displacement on KB cells); type: binding; conditions: compared to folic acid (relative affinity=1), 10% serum/FDRPMI
T1 construct: FR-positive KB cells were heavily seeded into 24-well cell culture plates; endogenous in cells; host or cells: KB cells (human cervical carcinoma)
T1 sequence (P15328 25-234): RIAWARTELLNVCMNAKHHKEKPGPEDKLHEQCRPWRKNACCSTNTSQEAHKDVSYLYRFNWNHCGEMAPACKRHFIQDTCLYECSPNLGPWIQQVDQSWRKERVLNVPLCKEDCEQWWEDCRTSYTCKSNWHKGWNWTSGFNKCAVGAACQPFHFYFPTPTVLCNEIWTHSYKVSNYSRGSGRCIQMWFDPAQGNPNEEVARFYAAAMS
Protocol: Relative Affinity Assay. The affinity for folate receptors (FRs) relative to folate was determined according to a previously described method (Westerhof, G. R., J. H. Schornagel, et al. (1995) Mol. Pharm. 48: 459-471) with slight modification. Briefly, FR-positive KB cells were heavily seeded into 24-well cell culture plates and allowed to adhere to the plastic for 18 h. Spent incubation media was replaced in designated wells with folate-free RPMI (FFRPMI) supplemented with 100 nM ^3H-folic acid in the absence and presence of increasing concentrations of test article or folic acid. Cells were incubated for 60 min at 37° C. and then rinsed 3 times with PBS, pH 7.4. Five hundred microliters of 1% SDS in PBS, pH 7.4, were added per well. Cell lysates were then collected and added to individual vials containing 5 mL of scintillation cocktail, and then counted for radioactivity. Negative control tubes contained only the ^3H-folic acid in FFRPMI (no competitor). Positive control tubes contained a final concentration of 1 mM folic acid, and CPMs measured in these samples (representing non-specific binding of label) were subtracted from all samples.

Question: Which results are given for `CCCC(=O)OCN(C(=O)[C@@H](NC(=O)[C@H]1CCCCN1C)[C@@H](C)CC)[C@H](C[C@@H](OC(C)=O)c1nc(C(=O)N[C@@H](Cc2ccc(O)cc2)C[C@H](C)C(=O)NNC(=O)OCCSSC[C@@H](NC(=O)[C@H](CCC(=O)NC[C@H](O)[C@@H](O)[C@H](O)[C@H](O)CO)NC(=O)[C@@H](CCC(=O)O)NC(=O)[C@H](CCC(=O)NC[C@H](O)[C@@H](O)[C@H](O)[C@H](O)CO)NC(=O)[C@@H](CCC(=O)O)NC(=O)[C@H](CCC(=O)NC[C@H](O)[C@@H](O)[C@H](O)[C@H](O)CO)NC(=O)CC[C@@H](NC(=O)c2ccc(NCc3cnc4nc(N)[nH]c(=O)c4n3)cc2)C(=O)O)C(=O)O)cs1)C(C)C` [EC1456]?
Answer: EC1456 Activity (IC50) (A549): Inactive; improvement in specificity compared to EC0531 [1]: 4 fold; Competable up to 100 nM ([1]; KB): Yes; In vitro specificity (fold) ([1]; difference in IC50 between competed and non-competed group): 944 fold; specificity for the folate receptor as determined by folic acid competition ([1]; difference in IC50 between competed group and non-competed group): ca. 1000 fold; IC50 ([1]; read-out: 50% competition, competed group (excess folic acid)): 1420 nM; IC50 ([1]; read-out: EC1456 Activity (IC50), KB, FR status +++, evaluated from 0.1-100 nM): 2.3 nM; IC50 ([1]; read-out: In vitro IC50): 1.5 nM; Competable up to 100 nM (NCI/ADR-RES-Cl2; NCI/ADR-RES-Cl2): Yes; IC50 (NCI/ADR-RES-Cl2; NCI/ADR-RES-Cl2, FR status ++, evaluated from 0.1-100 nM, read-out: EC1456 Activity (IC50)): 1.4 nM; complete responses (KB-CR tumors): ⅕; cures (KB-CR tumors): ⅘; weight loss / host animal toxicity (KB-CR tumors): did not exhibit significant host animal toxicity; also recorded: did not cause any weight loss; Histopathologic changes ([2]; doses at or below the MTD): not observed; improvement in MTD over EC0531 ([2]; i.v., BIW, 2 wks): 65%; MTD ([2]; rat, in vivo, iv, BIW, 2 wks): ≥ 0.51 µmol/kg; EC1456 Activity (IC50) (H23): Inactive; Competable up to 100 nM (IGROV1; IGROV1): Yes; IC50 (IGROV1; IGROV1, FR status +, evaluated from 0.1-100 nM, read-out: EC1456 Activity (IC50)): 0.72 nM; IC50 (LNCaP): ~850 nM; EC1456 Activity (IC50) (AN3CA): Inactive; weight loss / gross whole animal toxicity (% weight change) (MDA-MB-231 tumors; 2 μmmol/kg i.v., 2 weeks): did not cause gross whole animal toxicity; also recorded: not accompanied by significant weight loss; cures (MDA-MB-231 tumors; 2 μmmol/kg intravenous, 2 consecutive weeks): 4 of 5; EC1456 Activity (IC50) (HepG2): Inactive; Relative Affinity (folate receptors (FRs)): 0.27
